# From the supplement of paper PMC10307832
# Tests used:
# Test in all cases: relative viability (nuclei count vs DMSO), 5 days (fraction); higher = more cells survive
# [1] = compound: C1=CC=C(C(=C1)C2=CC=C(C=C2)C3=CSC4=C3C(=C(C(=O)N4)C#N)O)O + O=C(c1cc(Cc2n[nH]c(=O)c3ccccc23)ccc1F)N1CCN(C(=O)C2CC2)CC1 [Olaparib] (partner 8 µM)
# Procedure, shortened: (§1)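 Relative viability is defined as nuclei in treated wells over nuclei in vehicle wells. Duplicate plates were run and medians reported. Lung cancer cell lines in 1536-well plates were dosed by pin tool one day after seeding, with one drug or with a fixed anchor-drug dose plus five library-drug doses (not always all listed) in √10 steps, and nuclei were counted after 5 days.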
# TGX 221 + Phenformin = compound: CC1=CN2C(=O)C=C(N=C2C(=C1)C(C)NC3=CC=CC=C3)N4CCOCC4 [TGX 221] + N=C(N)NC(=N)NCCc1ccccc1 [Phenformin] (partner 250 µM)
# Procedure, shortened: as §1
# TGX 221 + Linsitinib = compound: CC1=CN2C(=O)C=C(N=C2C(=C1)C(C)NC3=CC=CC=C3)N4CCOCC4 [TGX 221] + C[C@]1(O)C[C@@H](c2nc(-c3ccc4ccc(-c5ccccc5)nc4c3)c3c(N)nccn32)C1 [Linsitinib] (partner 1 µM)
# Procedure, shortened: as §1
# [2] = compound: C1=CC=C(C(=C1)C2=CC=C(C=C2)C3=CSC4=C3C(=C(C(=O)N4)C#N)O)O + Cc1cc(Nc2cc(N3CCN(C)CC3)nc(Sc3ccc(NC(=O)C4CC4)cc3)n2)n[nH]1 [Tozasertib] (partner 0.1 µM)
# Procedure, shortened: as §1
Cell Line,relative viability ([1]; first compound 0.08 µM),relative viability ([1]; first compound 0.253 µM),relative viability ([1]; first compound 0.8 µM),relative viability ([1]; first compound 2.53 µM),relative viability ([1]; first compound 8 µM),relative viability (TGX 221 + Phenformin; first compound 0.08 µM),relative viability (TGX 221 + Phenformin; first compound 0.253 µM),relative viability (TGX 221 + Phenformin; first compound 0.8 µM),relative viability (TGX 221 + Phenformin; first compound 2.53 µM),relative viability (TGX 221 + Phenformin; first compound 8 µM),relative viability (TGX 221 + Linsitinib; first compound 0.253 µM),relative viability (TGX 221 + Linsitinib; first compound 0.8 µM),relative viability (TGX 221 + Linsitinib; first compound 2.53 µM),relative viability (TGX 221 + Linsitinib; first compound 8 µM),relative viability ([2]; first compound 0.08 µM),relative viability ([2]; first compound 0.253 µM),relative viability ([2]; first compound 0.8 µM),relative viability ([2]; first compound 2.53 µM),relative viability ([2]; first compound 8 µM),relative viability (TGX 221 + Linsitinib; first compound 0.08 µM)
201T,0.652,0.812,0.828,0.74,0.885,0.459,0.436,0.428,0.434,0.439,0.957,0.995,0.909,0.824,0.743,1.03,1.01,1.05,0.926,–
A549,0.275,0.208,0.314,0.375,0.379,0.198,0.138,0.185,0.209,0.152,0.451,0.391,0.432,0.456,–,–,–,–,–,0.491
A-427,0.781,0.71,0.849,0.712,0.793,0.341,0.297,0.307,0.39,0.326,1.02,1.1,1.12,1.02,0.188,0.209,0.248,0.224,0.215,1.05
ABC-1,0.856,1.22,1.06,0.701,0.829,0.228,0.228,0.19,0.217,0.253,0.794,0.773,0.557,0.547,0.214,0.204,0.205,0.265,0.186,0.964
BEN,0.987,1.38,1.03,1.19,0.971,0.24,0.257,0.273,0.27,0.265,0.839,0.878,0.823,0.774,0.477,0.507,0.747,0.75,0.541,0.869
CAL-12T,0.724,0.834,0.824,0.856,0.651,0.629,0.55,0.62,0.56,0.661,0.72,0.758,0.513,0.626,0.272,0.334,0.305,0.337,0.282,0.803
COR-L23,0.318,0.343,0.32,0.365,0.322,0.436,0.4,0.445,0.485,0.457,0.847,0.964,0.732,0.881,0.195,0.213,0.199,0.174,0.153,0.883
COR-L 105,0.695,0.793,1.03,0.688,0.859,0.514,0.45,0.569,0.572,0.412,0.828,1.02,0.537,0.554,0.386,0.341,0.358,0.383,0.379,0.986
Calu-6,0.721,0.595,0.643,0.63,0.615,–,–,–,–,–,0.913,0.935,0.855,0.84,–,–,–,–,–,0.909
ChaGo-K-1,0.388,0.443,0.396,0.439,0.45,0.479,0.512,0.481,0.456,0.494,–,–,–,–,0.242,0.238,0.239,0.232,0.208,–
EBC-1,0.741,0.701,0.664,0.719,0.587,–,–,–,–,–,0.726,0.822,0.687,0.702,–,–,–,–,–,0.911
EKVX,0.98,0.929,0.778,0.856,0.716,0.213,0.225,0.232,0.22,0.221,0.851,0.727,0.715,0.637,0.519,0.484,0.349,0.546,0.336,0.756
EMC-BAC-2,0.48,0.58,0.438,0.484,0.496,0.528,0.508,0.506,0.499,0.519,0.72,0.737,0.743,0.692,0.297,0.303,0.254,0.327,0.305,0.814
EPLC-272H,0.665,0.753,0.856,0.917,0.509,0.298,0.275,0.291,0.269,0.27,1.12,1.02,–,1.24,0.223,0.194,0.227,0.22,0.247,0.973
H3255,0.612,0.67,0.524,0.624,0.574,0.369,0.382,0.326,0.374,0.354,0.847,0.892,0.912,0.859,1.04,0.727,0.213,0.868,0.559,0.841
